Data on three molecules can be found in patent US20230167068A1, “BENZOPYRAZOLE COMPOUND” (MEDSHINE DISCOVERY INC., priority 2019, published 2023).

pEC50, pIC50: −log10 of the molar value. Like-named read-outs stand apart in the source and are kept apart here.

Series [1] relates to human peripheral blood mononuclear cells TNF-α. Briefly: Repression of TNF-α in human peripheral blood mononuclear cells (LPS, ELISA). As to conditions: PBMC, 3-fold diluted; for pIC50: read-out: hPBMC IC50; for Emax: maximum effect value. The class given is cell-based. Here is the method: Experimental purpose: To express the anti-inflammatory activity of the test compound at the cellular level according to the level of TNF-α in human peripheral blood mononuclear cells (hPBMC).
• [0488] 1) The frozen cells were quickly thawed by continuous stirring in a 37° C. water bath. • [0489] 2) 25 mL of fresh pre-heated thawed culture medium was added to a 50 mL centrifuge tube. Then the cells were added gently, drop by drop. • [0490] 3) Cells were centrifuged at 2000 rpm for 10 min (ascending speed: 9, descending speed: 1). • [0491] 4) The supernatant was discarded and the cell particles were resuspended in 25 mL of freshly pre-heated RPMI 1640 culture medium.
• [0493] 5) After thawing and resuscitating the suspended cells, the number of cells was counted and the total number of cells required for the experiment was calculated. • [0494] 6) The cell suspension was diluted with an appropriate volume of cell culture medium. • [0495] 7) The cell suspension was poured into a sterile disposable container. • [0496] 8) 100,000 cells/(100 µL) of cell suspension was transferred to each well of a 96-well plate. • [0497] 9) The cell plates were placed in humidified air, 5% CO2 incubator, 37° C. for 2 hours.
[…] In the second step, the serum-free culture medium was diluted 125 times, and the concentration of DMSO was 0.8%. Then 16.8 µL of the compound diluted in culture medium was transferred to a 100 µL cell plate, and the concentration of DMSO was 0.114%.
After adding the compound, the cell plates were incubated in a 37° C. 5% CO2 incubator for 1 hour.
In the first step, LPS was diluted with ultrapure water to a storage concentration of 1 mg/mL. In the second step, the storage concentration of LPS was diluted to 1 µg/mL in serum-free culture medium. In the third step, serum-free culture medium was 1666.666-fold diluted. Then 16.8 µL of LPS that has been diluted with culture medium was transferred to a 116.8 µL cell plate. At this time, the final concentration of DMSO was 0.1%. After adding LPS, the cell plate was put into a 37° C., 5% CO2 incubator and incubated for 18 hours.
• [0505] 1. The TNF-α antibody was diluted to 1× in the coating solution, and then 100 µL per well was added to a 96-well high-binding performance plate, and the plate was sealed with a membrane and placed at 4° C. for 18 hours. • [0506] 2. 2000 mL of wash buffer was prepared to 1x for later use.
• [0508] 3. After the plate was coated overnight, the coating solution was poured out and washed 3 times with 300 µL of washing buffer per well. • [0509] 4. After the plate was washed, 200 µL of sealing buffer was added to each well, and the plate was sealed with membrane. Incubated for one hour in a 25° C. incubator. • [0510] 5. The cell plates incubated for 18 hours were placed in a centrifuge for centrifugation, temperature: 25° C., speed: 2000 rpm, time: 10 min, ascending speed: 9, descending speed: 1. After centrifugation, 100 µL of cell supernatant from each well was transferred to a 3599 cell plate, and then placed in a 4° C. refrigerator for later use. • [0511] 6. The cell supernatant was diluted 40 times with sealing buffer and placed in a 4° C. refrigerator for later use, and the standard was also placed in a 4° C. refrigerator for later use. • [0512] 7. After the sealing was completed, the sealing solution was poured out and washed three times with 300 µL of washing buffer per well. • [0513] 8. The diluted cell supernatant samples and standards were added to the ELISA plate, and the plate was sealed with membrane. Then incubated for 2 hours in a 25° C. incubator. • [0514] 9. The liquid in the plate was poured out and washed 5 times with 300 µL of washing buffer per well. • [0515] 10. Antibodies were prepared and 100 µL was added to each well and the plate was sealed with sealing membrane. Then incubated for one hour in a 25° C. incubator. • [0516] 11. The liquid in the plate was poured out and washed 7 times with 300 µL of washing buffer per well. • [0517] 12. […]
For orientation: ELISA stands for enzyme-linked immunosorbent assay.

In series [2] the target is T1, CYP3A4 (Homo sapiens, UniProt P08684).
T1 construct: incubation system containing human liver microsomes, probe substrates, and co-factors; tissue Corning Inc. or other suppliers; host or cells: mixed (pooled) human liver microsomes
The series can be described thus: Human liver microsomal CYP repression experiment. The class given is in vitro ADME. To be noted: for repression on CYP3A4 (in words): conclusion on Table 3; for pIC50: mixed human liver microsomes, 5-in-1 probe substrate. Here is the method: The purpose of the research project was to evaluate the repression of the test sample on human liver microsomal cytochrome P450 isoenzyme (CYP3A4) using a 5-in-1 probe substrate of CYP isoenzyme.
Mixed human liver microsomes (HLM) were purchased from Corning Inc. (Steuben, New York, USA) or other suppliers and stored at temperatures below -70° C. before use.
The diluted series concentration of the test sample was added to the incubation system containing human liver microsomes, probe substrates, and co-factors of the circulating system, and the control without the test sample but with solvent was used as the enzyme activity control (100%). The concentration of metabolites produced by the probe substrate in the sample was determined by liquid chromatography-tandem mass spectrometry (LC-MS/MS). Non-linear regression analysis of the mean percent activity of the test sample versus concentration was performed using SigmaPlot (V. 11). The IC50 values were calculated by a three- or four-parameter inverse logarithmic equation.
(Microsomes from liver hold many membrane-bound enzymes, among them those of drug oxidation.)

The nature of series [3]: In vivo pharmacokinetic properties study in male SD rats. To be noted: rat, plasma, iv 2 mg/kg. As to the method: Experimental purpose: The purpose of this study was to determine the pharmacokinetic parameters of compounds in male SD rats.
Experimental methods: In this project, two male SD rats were intravenously administered with a dose of 2 mg/kg and a concentration of 0.4 mg/mL. Plasma samples were collected at 0 h (before administration) and 0.0833, 0.25, 0.5, 1, 2, 4, 6, 8, 24 h after administration. Then the collected samples were analyzed by LC-MS/MS and the data were collected. The collected analytical data were used to calculate the relevant pharmacokinetic parameters using Phoenix WinNonlin 6.3 software.

The test system of series [4] is MMTV promoter luciferase reporter in HeLa cell line (GR transcription activation). Briefly: MMTV transcription activation activity, luciferase reporter gene screening system (MMTV_GR transcription activation experiment). The class given is cell-based. To be noted: Homo sapiens. The source says:
The promoter of mouse mammary tumor virus (MMTV) contains specific binding sites for activating GRs (GREs). To determine the activity of the compounds, a reporter gene (luciferase) was inserted after the MMTV promoter, and this construct was expressed in a stable manner in the genome of the HeLa cell line. MMTV promoter was activated by the test compounds to induce the expression of luciferase, and its activity was detected by luminescence measurement.
• [0442] 1) All the culture media were carefully aspirated, the cell layer was rinsed gently with an appropriate amount of DPBS, and then aspirated. • [0443] 2) An appropriate amount of 0.05% Typsine EDTA was added and incubated in a CO2 incubator for 3-5 minutes to digest the cells. • [0444] 3) The cells were resuspended with an appropriate amount of cell culture medium. • [0445] 4) The amount of cells required was calculated, and the cell concentration was 4×10^3 cells/well. • [0446] 5) The cell suspension was diluted with appropriate cell culture medium. • [0447] 6) Cell suspension was dispensed into a disposable sterile loading slot. • [0448] 7) Inoculated 30 µL per well into a 384-well plate. • [0449] 8) The cell plate was placed in a 37° C. 5% CO2 incubator for 18-24 hours.
Compounds were diluted with DMSO to 1 mM, 0.25 mM, 0.0625 mM, 0.015625 mM, 0.0039 mM, 0.0009765 mM, 0.000244 mM, 0.000061 mM, 0.00001526 mM and 0.0000038125 mM, then diluted 25-fold with serum culture medium treated with activated carbon, and finally 4x concentration compound experimental plate was obtained, prepared before use.
The final DMSO experimental concentration was 0.1%.
MMTV_GR transcription activation activity experiment • [0458] 1) Inoculated cells: Fresh cells were inoculated into 384 white transparent bottom experimental plates at 4×10^3 cells/30 µL/well, and incubated at 37° C. 5% CO2 incubator for 24 hours. • [0459] 2) Compound preparation: The compound plate was prepared before the experiment, and the reference compound (dexamethasone) and the test compound of 4x concentration were prepared. Finally, the experimental plate of 4x concentration compound was obtained. • [0460] 3) Added compound: 10 µL of 4x compound was transferred with Bravo and added to cell plate. Incubated for 18 hours in a 37° C. 5% CO2 incubator. • [0461] 4) 30 µL of Bright-Glo fluorescent detection reagent was transferred to the cell plate. • [0462] 5) Centrifugal incubation for 2 minutes. • [0463] 6) The fluorescence value was measured with the Envision plate reader.
Positive control: 1000 nM dexamethasone (0.1% DMSO)
Negative control: 0.1% DMSO
Test compound: Maximum concentration of 1000 nM, 4-fold dilution, 10 wells in total, repeated.
Dexamethasone: Maximum concentration of 1000 nM, 4-fold dilution, 10 wells in total, repeated.
The graphing software GraphPad Prism5 was used to create the concentration curves of the tested compounds and calculate the IC50 values.
In general terms: In a reporter assay the amount or activity of a reporter protein is the signal.

T1 sequence (P08684 whole entry): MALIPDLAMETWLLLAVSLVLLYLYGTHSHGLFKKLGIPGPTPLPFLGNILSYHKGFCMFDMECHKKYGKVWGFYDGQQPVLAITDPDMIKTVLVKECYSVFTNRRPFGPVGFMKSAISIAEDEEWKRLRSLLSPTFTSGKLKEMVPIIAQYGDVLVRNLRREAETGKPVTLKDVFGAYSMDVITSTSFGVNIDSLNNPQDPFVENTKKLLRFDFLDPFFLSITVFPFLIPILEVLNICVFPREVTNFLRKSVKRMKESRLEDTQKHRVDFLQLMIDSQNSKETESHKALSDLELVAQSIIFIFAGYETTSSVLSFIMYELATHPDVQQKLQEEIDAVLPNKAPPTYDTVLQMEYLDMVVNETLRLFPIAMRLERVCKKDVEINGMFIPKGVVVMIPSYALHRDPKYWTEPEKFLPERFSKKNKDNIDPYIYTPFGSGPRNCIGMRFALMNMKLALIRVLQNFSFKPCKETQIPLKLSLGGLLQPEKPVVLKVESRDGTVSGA

Consider `CC(C)[C@H](NC(=O)C(C)(F)F)[C@H](Oc1ccc2c(cnn2-c2ccc(=O)n(C)c2)c1)c1ccccc1` [AZD9567, reference compound], for which, in series [1] (absolute IC50, test Top concentration 500 nM, 8 concentration (**)), the pIC50 (usually the negative decadic logarithm of the IC50, by convention in mol/L) is 7.24. Also, the Emax in series [1] (test Top concentration 500 nM, 8 concentration (**)) turned out to be 54.6%. Further, in series [2], the “repression on CYP3A4 (in words)” value is “moderate repression on CYP3A4” and the pIC50 was 5.53. Further, the clearance (commonly the volume of plasma or blood freed of the substance per unit of time) in series [3] came out at 4.25 mL/min/kg. Further, the half-life in series [3] (read-out: T½ (converted)) was 1.99 h. In addition, the Vd in series [3] (read-out: Vdss) worked out at 0.56 L/kg.
As to `C[C@H](NC(=O)C(C)(F)F)[C@H](Oc1ccc2c(cnn2-c2ccc3nncn3c2)c1)c1ccccc1` [WX022], the Emax in series [4] (HeLa, maximum effect value, positive control 1000 nM dexamethasone, read-out: TA (MMTV transcription activation activity) Effect) came out at 101%; in series [1] (test Top concentration 1000 nM, 8 concentration (*)), 90%. For the same molecule, the pEC50 (usually the negative decadic logarithm of the EC50, by convention in mol/L) in series [4] (absolute EC50, HeLa MMTV-luciferase cells, 18 h, max concentration 1000 nM, read-out: TA (MMTV transcription activation activity) EC50) was 8.80. Besides, in series [1] (absolute IC50, test Top concentration 1000 nM, 8 concentration (*)), the pIC50 was 8.62.
`C[C@H](NC(=O)C(C)(F)F)[C@H](Oc1ccc2c(cnn2-c2cn(C)nn2)c1)c1ccccc1` [WX053]: in series [2], the “repression on CYP3A4 (in words)” value is listed as “significantly improve the repression of CYP3A4” and the pIC50 was 4.80.
